Laboratory results: patent US8106203B2, “Assay methods using chemiluminescent detection of peroxidase” (Lumigen, Inc., priority 2001, dated 2012)
One block for each compound: values may come before it.

Legend:
HRP [1] = molecular target: T1, HRP (Armoracia rusticana, UniProt P00433); experiment: Comparison of signal intensity (Example 9): chemiluminescence on reaction of reagent with HRP; format: biochemical, horseradish; details: 3.5×10^−16 moles of HRP
T1 sequence (P00433 31-338): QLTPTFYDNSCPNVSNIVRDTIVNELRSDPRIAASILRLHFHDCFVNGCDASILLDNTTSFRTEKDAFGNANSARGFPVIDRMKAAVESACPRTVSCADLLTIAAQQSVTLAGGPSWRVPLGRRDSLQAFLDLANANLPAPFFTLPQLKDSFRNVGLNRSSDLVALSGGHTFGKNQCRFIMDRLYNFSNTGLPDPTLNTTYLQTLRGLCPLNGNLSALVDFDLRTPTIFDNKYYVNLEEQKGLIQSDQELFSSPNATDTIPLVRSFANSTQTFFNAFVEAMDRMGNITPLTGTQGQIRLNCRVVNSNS
Method: Reagent compositions comprising 0.01 M tris buffer, pH 8, 0.5 mM urea peroxide, 0.1 mM p-phenylphenol, […], 0.025% Tween 20, and 5×10^−5 M of each compound in the table below except the compound designated Ref. 1 were tested for production of chemiluminescence by reacting a 100 μL aliquot with 3.5×10^−16 moles of HRP. The reagent formulation for Ref. 1 comprised 0.05 M tris buffer, pH 8.6, 0.25 mM urea peroxide, 0.05 mM p-phenylphenol, 0.5 mM EDTA, 0.0125% Tween 20, and 3.3×10^−4 M Ref. 1. For comparison, data are provided for reference compounds 1 and 2.

HRP [2] = molecular target: T1, HRP; experiment: Chemiluminescent detection of HRP with compound 1; format: biochemical, horseradish
Method: Reagent compositions comprising 0.01 M tris buffer, pH 7.0, 0.5 mm urea peroxide, 0.1 mM p-phenylphenol, 1 mM EDTA, 0.025% Tween 20 and 5×10^−5 M compound 1 were tested for production of chemiluminescence by reacting triplicate 100 μL aliquots with 10 μL of HRP in the range 1.4×10^−15 to 1.4×10^−20 moles. Light production ensued upon mixing and reached maximum intensity in about 1 min.

HRP-labeled antibody = molecular target: T2, HRP-labeled antibody (Armoracia rusticana, UniProt P00433); experiment: Western blot of β-galactosidase via HRP-labeled antibody on PVDF membrane; format: biochemical
T2 sequence (P00433 31-338): T1 sequence (P00433 31-338)
Method: A western blot assay of β-galactosidase as the test antigen was conducted according to the procedure described in U. K. Laemmli, Nature (London), 227, 680 (1970) using a PVDF membrane. β-Galactosidase standards in the range of 5000-5 pg. The detection reagent containing Compound 1 permitted detection to be performed in under 1 minute.

peroxidase = experiment: Chemiluminescence on reaction with peroxide and a peroxidase (general); format: biochemical; details: mixtures of double bond isomers
Source text: Reaction of ketene dithioacetal compounds of formula I, including those shown above, with peroxide and a peroxidase generate chemiluminescence which rapidly reaches very high intensity. Maximum light emission is achieved in one minute or less and remains constant for several minutes. […] No other known chemiluminescent peroxidase substrate generates high intensity chemiluminescence so rapidly. This kinetic behavior in unexpected and contrasts with the chemiluminescence time profile of structurally related compounds disclosed in the aforementioned U.S. Pat. No. 5,922,558. For example, a compound having the formula:
[drawing 18] reacted with HRP was disclosed to reach maximum chemiluminescence intensity in 7 min. The ability of the compounds of the present invention to reach a stable maximum light intensity so rapidly makes them more suitable than other chemiluminescent compounds for peroxidase detection in the rapid high throughput assays in demand today.
Compounds and compositions of the present invention are useful in a method to produce chemiluminescence by reaction with a peroxidase. Reaction of a compound of the invention with a peroxidase and a peroxide in an aqueous buffer solution produces easily detectable visible chemiluminescence. Light intensity reaches a maximum level rapidly at room temperature, typically in about 1 minute. […]

HRP [3] = molecular target: T1, HRP; experiment: Comparison of signal intensity (Example 10): maximum signal with HRP; format: biochemical, horseradish; details: 3×10^−4 M compound, 0.025 M tris pH 8, 2.5 mM urea peroxide, 4 mM p-hydroxycinnamic acid; 3.5×10^−16 moles of HRP
Method: (§1) The maximum signal produced by each of compounds 14, and 27-29 was compared by reacting a 100 μL aliquot of reagent compositions comprising 0.025 M tris buffer, pH 8, 2.5 mM urea peroxide, 4 mM p-hydroxycinnamic acid, 0.5 mM EDTA, 0.1% Tween 20, and 3×10^−4 M of the test compound with 3.5×10^−16 moles of HRP. Each reagent reached maximum light intensity in about 1 minute.

HRP [4] = molecular target: T1, HRP; experiment: Comparison of signal intensity (Example 17): maximum signal with HRP; format: biochemical, horseradish; details: 3.5×10^−16 moles of HRP
Method: as §1, with “40-51” for “14, and 27-29”, “either 1 mM, 0.3 mM, 0.15 mM or 0.05 mM” for “3×10^−4 M”, “1-3 minutes.” for “about 1 minute.”

[5] = Solubility in the aqueous formulation; format: physicochemical; details: 0.025 M tris pH 8 formulation with 0.1% Tween 20
HRP [6] = molecular target: T1, HRP; experiment: Chemiluminescent detection of HRP with compounds 52 and 53; format: biochemical, horseradish; details: 3×10^−4 M compound, HRP 1.4×10^−16 to 1.4×10^−21 moles
Method: Reagent compositions comprising 0.025 M tris buffer, pH 8.0, 2.5 mM urea peroxide, 4 mM p-hydroxycinnamic acid, 0.5 mM EDTA, 0.1% Tween 20 and 3×10^−4 M compound 52 or 53 were tested for production of chemiluminescence by reacting triplicate 100 μL aliquots with 10 μL of HRP in the range 1.4×10^−16 to 1.4×10^−21 moles. […] The relation between peak chemiluminescence intensity and amount of enzyme is depicted in FIG. 8.

HRP [7] = molecular target: T1, HRP; experiment: Stability of working solutions by solution assay; format: physicochemical, horseradish
Method: Reagent stability of the working solutions of compound 53 and compound 46 was assessed by preparing the working solution by combining 50 μL aliquots of the two component solutions and storing the mixed solutions at 4° C. or room temperature. The working solution contained 0.025 M tris buffer, pH 8, 2.5 mM urea peroxide, 4 mm p-hydroxycinnamic acid, 0.5 mM EDTA, 0.1% Tween 20, and 0.05 mM of the substrate. Chemiluminescent assays were run with 3.5×10^−16 moles of HRP at 25° C. Maximum intensity results were compared to the values obtained with fresh reagent prepared from the individual components stored at 4° C. […] The composition containing compound 53 was unchanged after four months at 4° C., that containing compound 46 was unchanged after 9 months at 4° C.

[8] = 5×10^−5 M compound, 0.01 M tris pH 8, 0.5 mM urea peroxide, 0.1 mM p-phenylphenol, 0.025% Tween 20
[9] = 1 mM test compound (Formulation 1.0)

- Signal/Background (HRP [1]; [8]): 8060
- time to reach maximum intensity (HRP [2]; 5×10^−5 M compound 1, pH 7.0, p-phenylphenol): about 1 min
- log-log plot of chemiluminescence intensity vs. amount of enzyme (HRP [2]; HRP 1.4×10^−15 to 1.4×10^−20 moles): linear over the entire range tested
- lower abundance bands able to be imaged (HRP-labeled antibody; β-galactosidase): ≤ 1 pg
- time in which detection could be performed (HRP-labeled antibody; β-galactosidase standards 5000-5 pg): under 1 minute
SMILES: CSC(SC)=C1c2ccccc2N(c2ccccc2)c2ccccc21 [Compound 1]

- Signal/Background (HRP [3]): 6717
SMILES: CSC(SCCCS(=O)(=O)[O-])=C1c2ccccc2N(Cc2ccc(Cl)cc2)c2ccccc21.[Na+] [Compound 28]

- Signal/Background (HRP [3]): 6621
SMILES: COc1ccc(CN2c3ccccc3C(=C(SC)SCCCS(=O)(=O)[O-])c3ccccc32)cc1.[Na+] [Compound 29]

- Signal/Background (HRP [3]): 26000
SMILES: O=S(=O)([O-])CCCSC(SCc1ccccc1)=C1c2ccccc2N(Cc2ccccc2)c2ccccc21.[Na+] [Compound 38]

- Signal/Background (HRP [4]; [9]): 4011
SMILES: CSC(SC)=C1c2ccccc2N(Cc2ccc(O)cc2)c2ccccc21 [Compound 40]

- Signal/Background (HRP [4]; [9]): 14000
SMILES: O=S(=O)([O-])CCCSC(SCc1ccc(Cl)cc1)=C1c2ccccc2N(Cc2ccccc2)c2ccccc21.[Na+] [Compound 41]

- Signal/Background (HRP [4]; [9]): 9100
SMILES: O=S(=O)([O-])CCCSC(SCc1ccccc1)=C1c2ccccc2N(c2ccccc2)c2ccccc21.[Na+] [Compound 42]

- Signal/Background (HRP [4]; [9]): 7228
SMILES: O=S(=O)([O-])CCCOC1CSC(=C2c3ccccc3N(Cc3ccccc3)c3ccccc32)SC1.[Na+] (centres unmarked) [Compound 47]

- Signal/Background (HRP [4]; [9]): 4219
SMILES: O=P([O-])([O-])OCCCOC1CSC(=C2c3ccccc3N(Cc3ccccc3)c3ccccc32)SC1.[Na+].[Na+] (centres unmarked) [Compound 48]

- Signal/Background (HRP [4]; 0.15 mM test compound): 5840
- rise of light to maximum intensity (HRP [6]): reached maximum intensity rapidly
SMILES: O=S(=O)([O-])CCCOCCCSC(SCCCO)=C1c2ccccc2N(Cc2ccccc2)c2ccccc21.[Na+] [Compound 52]

- Signal/Background (HRP [4]; 0.15 mM test compound): 5742
- rise of light to maximum intensity (HRP [6]): reached maximum intensity rapidly
- working solution composition after storage (HRP [7]; four months at 4° C.): unchanged
- reagent performance on storage of working solution (HRP [7]; up to three weeks at room temperature, 0.05 mM substrate): no deterioration of reagent performance
SMILES: CSC(SCCCOCCCS(=O)(=O)[O-])=C1c2ccccc2N(Cc2ccccc2)c2ccccc21.[Na+] [Compound 53]

- Signal/Background (HRP [4]; 0.15 mM test compound): 2502
SMILES: CSC(SCCCSCCCS(=O)(=O)[O-])=C1c2ccccc2N(c2ccccc2)c2ccccc21.[Na+] [Compound 54]

- Signal/Background (HRP [4]; 0.3 mM test compound): 5408
SMILES: CSC(SCCCOS(=O)(=O)[O-])=C1c2ccccc2N(Cc2ccccc2)c2ccccc21.[Na+] [Compound 55]

Further lines, the compound ahead of its results:

SMILES: CSC(SC)=C1c2ccccc2N(C)c2ccccc21 [Compound 2]
- Signal/Background (HRP [1]; [8]): 953

SMILES: c1ccc(CSC(SCc2ccccc2)=C2c3ccccc3N(c3ccccc3)c3ccccc32)cc1 [Compound 3]
- generation of chemiluminescence (peroxidase): Compounds 3, 4 and 6 were obtained as mixtures of double bond isomers. Each of these compounds generates chemiluminescence in the present invention.

SMILES: CCCCCCCCSC(SC)=C1c2ccccc2N(c2ccccc2)c2ccccc21 [Compound 6]
- generation of chemiluminescence (peroxidase): Compounds 3, 4 and 6 were obtained as mixtures of double bond isomers. Each of these compounds generates chemiluminescence in the present invention.

SMILES: CCCCCCCCSC(SCCCS(=O)(=O)[O-])=C1c2ccccc2N(c2ccccc2)c2ccccc21.[Li+] [Compound 13]
- Signal/Background (HRP [1]; [8]): 7626

SMILES: OC1CSC(=C2c3ccccc3N(c3ccccc3)c3ccccc32)SC1 (centres unmarked) [Compound 45]
- Signal/Background (HRP [4]; 0.3 mM test compound): 2102

SMILES: c1ccc(CN2c3ccccc3C(=C3SCCOCCOCCOCCOCCS3)c3ccccc32)cc1 [Compound 49]
- Signal/Background (HRP [4]; 0.05 mM test compound): 4853
- solubility in the aqueous formulation [5]: very poorly soluble

SMILES: O=S(=O)([O-])CCCOCCCN1c2ccccc2C(=C2Sc3ccccc3S2)c2ccccc21.[Na+] [Compound 50]
- Signal/Background (HRP [4]; 0.3 mM test compound): 1651

SMILES: CN1c2ccccc2C(=C2Sc3ccccc3S2)c2ccccc21 [Compound 51]
- Signal/Background (HRP [4]; 0.05 mM test compound): 4264
- solubility in the aqueous formulation [5]: very poorly soluble

SMILES: CN1c2ccccc2C(=C(OP(=O)([O-])[O-])Sc2ccccc2)c2ccccc21.[Na+].[Na+] [Ref. 1, reference compound]
- Signal/Background (HRP [1]; Ref. 1 formulation: 3.3×10^−4 M, 0.05 M tris pH 8.6, 0.25 mM urea peroxide, 0.05 mM p-phenylphenol): 53
- chemiluminescence intensity and exposure needed, compared with the compound 1 reagent (HRP-labeled antibody; β-galactosidase): lower intensity chemiluminescence and required longer exposures
- lower abundance bands able to be imaged (HRP-labeled antibody; β-galactosidase): not possible to image

SMILES: COC(Sc1ccccc1)=C1c2ccccc2N(C)c2ccccc21 [Ref. 2, reference compound]
- Signal/Background (HRP [1]; [8]): 325
